# Source: patent US20260325473A1, “N-Beta-Hydroxybutyryl-Amino Acids and Related Compositions and Methods” (The Board of Trustees of the Leland Stanford Junior …, priority 2023, published 2026)
# What was measured:
# [1] = Human ketone ester supplementation study, plasma metabolites; format: in vivo; settings: 0.3 g/kg ketone ester, 60 min vs baseline
# Procedure: Targeted metabolomics. Targeted measurements were performed using an Agilent 6470 triple quadrupole LC-MS instrument. MS analysis was performed using AJS in negative mode. The AJS source parameters were set as follows: the dry gas temperature was set at 250° C. with a gas flow of 12 l/min and the nebulizer pressure at 25 psi; the sheath gas temperature was set to 300° C. with the sheath gas flow set at 12 l/min; and the capillary voltage was set to 3,500 V. Separation of polar metabolites was performed as described above in the ‘Untargeted measurements of metabolites by LC-MS’ section. Multiple reaction monitoring was performed for the indicated metabolites with the listed dwell times, fragmentor voltage, collision energies, cell accelerator voltages and polarities. Quantification of the endogenous metabolite concentrations were performed by generating a standard curve with known concentrations of each metabolite. Metabolite standards were analyzed alongside the plasma samples using the same targeted triple quadrupole LC/MS method. A calibration standard curve generated from the metabolite standard concentrations and total peak areas were used to calculate the concentrations of each endogenous metabolite. The dilution of the plasma during the sample preparation was also taken into account for the quantification.
# Human ketone ester supplementation study. Following screening, eligible subjects participated in a randomized, counter-balanced, double-blind, placebo-controlled crossover trial comparing BHB supplementation versus placebo, separated by a minimum of 2 days (ClinicalTrials.gov ID NCT04194450). Pre-menopausal women were tested in the follicular phase (days 3-9). Participants were asked to refrain from structured exercise and alcohol, limit physical activity, and follow a standardized diet (~50% carbohydrate, ~30% fat, ~20% protein) on the day before each trial. After refraining from medication use for 24 hours, participants reported to the Exercise, Metabolism and Inflammation Laboratory at the University of British Columbia-Okanagan in an overnight fasted state. Anthropometric measurements were obtained prior to insertion of an indwelling intravenous catheter into the antecubital vein for repeated blood sampling. Blood was collected into EDTA tubes (BD, 367863) and immediately centrifuged at 2000 rpm for 15 min and the top layer of plasma was aliquoted and frozen at −80 °C. After baseline (0) blood sample collection, the oral BHB supplement or placebo was consumed in liquid form (~30-65 mL). The BHB supplement (H.V.M.N®, USA) in the form of the ketone monoester (R)-3-hydroxybutyl (R)-3-hydroxybutyrate (AG®, TDeltaS, Oxford, UK) contained 0.4 g mL-1 BHB, natural flavoring, and <2% stevia leaf extract. The taste-matched placebo drink contained the same natural flavoring as the ketone supplement, stevia leaf extract, 5 mL of Bittrex stock (0.005 g of denatonium benzoate powder in 40 ml of water) and 1.5 mL of arrowroot stock (2 g of arrowroot powder in 50 ml of water) to match the bitter flavor and viscosity of the ketone monoester. Supplements were dispensed into opaque 80 ml bottles with volume calculated for 0.3 g BHB/kg body weight and labelled either A or B by a third-party researcher. Blinding was maintained until completion of data collection and analyses.
# CNDP2 = target: T1, CNDP2 (Mus musculus, UniProt Q9D1A2); experiment: Tissue enzyme activity, WT or CNDP2-KO mouse tissue lysates; format: biochemical; settings: role: product; for synthesis activity in WT kidney and gut: 1 h, 37° C
# T1 sequence (Q9D1A2 1-475): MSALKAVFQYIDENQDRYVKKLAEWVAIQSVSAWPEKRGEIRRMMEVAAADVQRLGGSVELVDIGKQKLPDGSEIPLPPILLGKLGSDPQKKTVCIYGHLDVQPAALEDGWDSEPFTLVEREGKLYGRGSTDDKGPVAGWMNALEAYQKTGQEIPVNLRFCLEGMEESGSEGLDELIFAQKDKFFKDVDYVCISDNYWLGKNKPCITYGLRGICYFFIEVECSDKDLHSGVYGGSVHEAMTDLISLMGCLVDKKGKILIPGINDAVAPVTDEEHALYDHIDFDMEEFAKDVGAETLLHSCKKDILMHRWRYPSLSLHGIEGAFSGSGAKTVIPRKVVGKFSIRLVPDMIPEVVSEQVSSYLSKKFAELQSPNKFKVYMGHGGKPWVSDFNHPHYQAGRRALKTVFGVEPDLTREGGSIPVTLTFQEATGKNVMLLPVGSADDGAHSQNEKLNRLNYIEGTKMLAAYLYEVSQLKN
# Procedure: Tissue enzyme activity assays. Mouse tissues were mixed with cold PBS and homogenized using a Benchmark BeadBlaster Homogenizer at 4 °C. Protein concentrations were adjusted and the resulting crude was filtered through a 0.45-μm filter to remove insoluble materials. The in vitro reactions were conducted in Eppendorf tubes with 200 μg protein and incubation with the corresponding substrates at 37° C. for 1 hour. After that time, 10 μl of HCl and 400 μl of ethyl acetate were added in the BHB and lactate reactions and the samples were vortexed for 30 s. Reactions were centrifuged at 4° C. for 10 min at 15,000 r.p.m. and total of 300 μl from the top layer was transferred to a new Eppendorf tube and dried down under a stream of nitrogen. The residue was re-suspended in 100 μl of an 2:1:1 mixture of acetonitrile: methanol: water. The mixture was centrifuged at 4° C. for 10 min at 15,000 r.p.m. and the supernatant was transferred to a LC-MS vial. For carnosine reactions, the reactions were not acidified and were directly quenched with 300 μl of an 2:1:1 mixture of acetonitrile: methanol: water after the 1 h incubation and vortexed for 30 s. The mixture was centrifuged at 4° C. for 10 min at 15,000 r.p.m. and the supernatant was transferred to a LC-MS vial.
elevation of plasma keto amino acid after ketone ester drink [1] [fold],"synthesis activity in WT brain, liver, and quadriceps (CNDP2; BHB 20 mM + Phe 20 mM)","reduction of synthesis activity in CNDP2-KO vs WT, brain (CNDP2; BHB 20 mM + Phe 20 mM, brain) [%]","reduction of synthesis activity in CNDP2-KO vs WT, gut (CNDP2; BHB 20 mM + Phe 20 mM, gut) [%]","reduction of synthesis activity in CNDP2-KO vs WT, kidney (CNDP2; BHB 20 mM + Phe 20 mM, kidney) [%]","reduction of synthesis activity in CNDP2-KO vs WT, liver (CNDP2; BHB 20 mM + Phe 20 mM, liver) [%]","reduction of synthesis activity in CNDP2-KO vs WT, quadriceps (CNDP2; BHB 20 mM + Phe 20 mM, quadriceps) [%]",BHB-amino acid synthesis activity in CNDP2-KO kidney and gut (CNDP2; BHB 20 mM + amino acid 20 mM),Compound,synthesis activity in WT kidney and gut (CNDP2; BHB 20 mM + amino acid 20 mM)
3,"lower, but detectable",> 85,> 95,> 95,> 75,> 60,–,"CC(O)CC(=O)N[C@@H](Cc1ccccc1)C(=O)O (some centres unmarked) [BHB-Phe, N-betahydroxybutyryl-phenylalanine]",highest BHB-Phe synthesis activity
2.5,–,–,–,–,–,–,largely abolished,"CC(O)CC(=O)N[C@H](C(=O)O)C(C)C (some centres unmarked) [BHB-Val, N-betahydroxybutyryl-valine]",highest BHB-amino acid synthesis activity
